Source: patent US10899737B2, “Piperazine carbamates and methods of making and using same” (Lundbeck La Jolla Research Center, Inc., priority 2016, dated 2021)

Columns and labels:
Assay type in all cases: biochemical
ABHD6 [1] = biological target: T1, ABHD6 (Homo sapiens, UniProt Q9BV23); experiment: In vitro competitive activity-based protein profiling (human), ABHD6; settings: human PC3
T1 construct: Proteomes (human prefrontal cortex or cell membrane fractions); endogenous in cells; human prefrontal cortex
T1 sequence (Q9BV23 1-337): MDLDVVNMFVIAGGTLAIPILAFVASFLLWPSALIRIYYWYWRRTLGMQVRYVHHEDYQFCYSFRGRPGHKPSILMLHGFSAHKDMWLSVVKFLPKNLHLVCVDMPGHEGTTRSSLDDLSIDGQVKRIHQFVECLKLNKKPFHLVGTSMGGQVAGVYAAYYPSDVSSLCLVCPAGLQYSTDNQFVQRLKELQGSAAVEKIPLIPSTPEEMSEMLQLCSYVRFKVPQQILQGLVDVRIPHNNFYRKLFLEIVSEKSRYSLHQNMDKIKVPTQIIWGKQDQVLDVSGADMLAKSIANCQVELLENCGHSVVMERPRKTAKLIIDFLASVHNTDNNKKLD
Description: (§1) In Vitro Competitive Activity-Based Protein Profiling (Human).
(§2) Proteomes (human prefrontal cortex or cell membrane fractions) (50 μL, 1.0-2.0 mg/mL total protein concentration) were preincubated with varying concentrations of inhibitors at 37° C. After 30 min, FP-Rh or JW912 (1.0 μL, 50 μM in DMSO) was added and the mixture was incubated for another 30 min at room temperature. Reactions were quenched with SDS loading buffer (15 μL-4×) and run on SDS-PAGE. Following gel imaging, serine hydrolase activity was determined by measuring fluorescent intensity of gel bands corresponding to MAGL and ABHD6 using ImageJ 1.49 k software.

ABHD6 [2] = biological target: T2, ABHD6 (Mus musculus, UniProt Q8R2Y0); experiment: In vitro competitive activity-based protein profiling (mouse), ABHD6; settings: 1 μM inhibitor, mouse brain membrane fraction or cell lysates; read-out: ABHD6 % inh. 1 μM (mouse)
T2 construct: Proteomes (mouse brain membrane fraction or cell lysates); from tissue; host or cells: mouse brain membrane fraction or cell lysates
T2 sequence (Q8R2Y0 1-336): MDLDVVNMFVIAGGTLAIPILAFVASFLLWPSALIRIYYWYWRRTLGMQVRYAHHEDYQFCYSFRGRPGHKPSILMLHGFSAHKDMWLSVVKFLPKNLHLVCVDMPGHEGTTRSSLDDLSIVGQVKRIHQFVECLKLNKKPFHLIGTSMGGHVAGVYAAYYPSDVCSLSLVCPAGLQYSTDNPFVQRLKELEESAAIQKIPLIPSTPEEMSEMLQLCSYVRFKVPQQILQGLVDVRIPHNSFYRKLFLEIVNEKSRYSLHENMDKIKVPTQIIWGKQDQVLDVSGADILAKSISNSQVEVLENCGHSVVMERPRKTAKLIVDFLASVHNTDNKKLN
Description: (§3) In Vitro Competitive Activity-Based Protein Profiling (Mouse).
(§4) Proteomes (mouse brain membrane fraction or cell lysates) (50 μL, 1.0 mg/mL total protein concentration) were preincubated with varying concentrations of inhibitors at 37° C. After 30 min, FP-Rh (1.0 μL, 50 μM in DMSO) was added and the mixture was incubated for another 30 min at 37° C. Reactions were quenched with SDS loading buffer (50 μL-4×) and run on SDS-PAGE. Following gel imaging, serine hydrolase activity was determined by measuring fluorescent intensity of gel bands corresponding to MAGL and ABHD6 using ImageJ 1.49 k software. Data from this assay is shown in Table 1 (% inhibition at 1 μM).

MAGL [3] = biological target: T3, MAGL (Mus musculus, UniProt O35678); experiment: In vitro competitive activity-based protein profiling (mouse), MAGL; settings: 1 μM inhibitor, mouse brain membrane fraction or cell lysates; read-out: MAGL % inh. 1 μM (mouse)
T3 construct: Proteomes (mouse brain membrane fraction or cell lysates); from tissue; host or cells: mouse brain membrane fraction or cell lysates
T3 sequence (O35678 1-303): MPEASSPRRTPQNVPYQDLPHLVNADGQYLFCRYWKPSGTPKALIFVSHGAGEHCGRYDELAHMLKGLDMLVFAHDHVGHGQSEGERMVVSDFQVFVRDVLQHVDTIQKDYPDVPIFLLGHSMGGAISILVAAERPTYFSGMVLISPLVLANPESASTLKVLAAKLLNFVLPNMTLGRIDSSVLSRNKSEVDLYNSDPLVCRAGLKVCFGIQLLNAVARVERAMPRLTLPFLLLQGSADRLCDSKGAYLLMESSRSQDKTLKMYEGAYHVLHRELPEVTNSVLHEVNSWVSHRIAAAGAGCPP
Description: as §3, §4

MAGL [4] = biological target: T4, MAGL (Homo sapiens, UniProt Q99685); experiment: In vitro competitive activity-based protein profiling (human), MAGL; settings: for inhibition at 1 µM: 1 μM inhibitor, human proteome, 30 min preincubation at 37° C, read-out: MAGL % inh. 1 μM (human); for IC50: human PC3
T4 construct: Proteomes (human prefrontal cortex or cell membrane fractions); from tissue
T4 sequence (Q99685 1-303): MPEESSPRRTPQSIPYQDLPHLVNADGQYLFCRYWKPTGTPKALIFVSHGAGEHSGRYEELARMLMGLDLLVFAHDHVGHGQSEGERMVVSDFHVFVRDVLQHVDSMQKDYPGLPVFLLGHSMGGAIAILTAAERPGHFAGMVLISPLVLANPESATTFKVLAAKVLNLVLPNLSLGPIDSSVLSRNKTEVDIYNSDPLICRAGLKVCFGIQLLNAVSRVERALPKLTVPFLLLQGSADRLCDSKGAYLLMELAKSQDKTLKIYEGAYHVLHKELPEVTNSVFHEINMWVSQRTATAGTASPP
Description: as §1, §2

| Compound | IC50 (ABHD6 [1]) [µM] | inhibition at 1 µM (ABHD6 [2]) [%] | inhibition at 1 µM (MAGL [3]) [%] | inhibition at 1 µM (MAGL [4]) [%] | IC50 (MAGL [4]) [µM] |
| --- | --- | --- | --- | --- | --- |
| O=C(OC(C(F)(F)F)C(F)(F)F)N1CCN(Cc2cc(C(F)(F)F)cc(C3(C(=O)O)CCCC3)c2)CC1 [Example 1, 1-(3-((4-(((1,1,1,3,3,3-Hexafluoropropan-2-yl)oxy)carbonyl)piperazin-1-yl)methyl)-5-(trifluoromethyl)phenyl)cyclopentane-1-carboxylic Acid] | 0.1 to 1 | ≥ 75 | ≥ 75 | ≥ 75 | ≤ 0.1 |
| O=C(O)Cn1ccc(-c2ccccc2CN2CCN(C(=O)OC(C(F)(F)F)C(F)(F)F)CC2)n1 [Example 11, 2-(3-(2-((4-(((1,1,1,3,3,3-Hexafluoropropan-2-yl)oxy)carbonyl)piperazin-1-yl)methyl)phenyl)-1H-pyrazol-1-yl)acetic Acid] | 1 to 10 | 0 to 25 | ≥ 75 | ≥ 75 | 0.1 to 1 |
| Cc1ccc(CN2CCN(C(=O)OC(C(F)(F)F)C(F)(F)F)CC2)c(C2(C(=O)O)CCCC2)c1 [Example 14, 1-(2-((4-(((1,1,1,3,3,3-Hexafluoropropan-2-yl)oxy)carbonyl)piperazin-1-yl)methyl)-5-methylphenyl)cyclopentane-1-carboxylic Acid] | 1 to 10 | 0 to 25 | ≥ 75 | ≥ 75 | ≤ 0.1 |
| CC(C)(C(=O)O)N1CC2CN(c3cc(C(F)(F)F)ccc3CN3CCN(C(=O)OC(C(F)(F)F)C(F)(F)F)CC3)CC2C1 (centres unmarked) [Example 16, 2-(5-(2-((4-(((1,1,1,3,3,3-Hexafluoropropan-2-yl)oxy)carbonyl)piperazin-1-yl)methyl)-5-(trifluoromethyl)phenyl)hexahydropyrrolo[3,4-c]pyrrol-2(1H)-yl)-2-methylpropanoic Acid] | 1 to 10 | 0 to 25 | ≥ 75 | ≥ 75 | ≤ 0.1 |
| N#Cc1ccc(CN2CCN(C(=O)OC(C(F)(F)F)C(F)(F)F)CC2)c(C2(C(=O)O)CCCC2)c1 [Example 30, 1-(5-Cyano-2-((4-(((1,1,1,3,3,3-hexafluoropropan-2-yl)oxy)carbonyl)piperazin-1-yl)methyl)phenyl)cyclopentane-1-carboxylic Acid] |  | 0 to 25 | ≥ 75 |  |  |
| O=C(O)CN1CCC(C2CCN(c3cc(Cl)ccc3CN3CCN(C(=O)OC(C(F)(F)F)C(F)(F)F)CC3)CC2)C1 (centres unmarked) [Example 33, 2-(3-(1-(5-Chloro-2-((4-(((1,1,1,3,3,3-hexafluoropropan-2-yl)oxy)carbonyl)piperazin-1-yl)methyl)phenyl)piperidin-4-yl)pyrrolidin-1-yl)acetic Acid] |  | 50 to 75 | ≥ 75 | ≥ 75 |  |
| N#Cc1ccc(CN2CCN(C(=O)OC(C(F)(F)F)C(F)(F)F)CC2)c(-c2ccn(CC(=O)O)n2)c1 [Example 50, 2-(3-(5-cyano-2-((4-(((1,1,1,3,3,3-hexafluoropropan-2-yl)oxy)carbonyl)piperazin-1-yl)methyl)phenyl)-1H-pyrazol-1-yl)acetic acid] |  | ≥ 75 | ≥ 75 | ≥ 75 |  |
| CN1CCN(c2cc(C(F)(F)F)ccc2CN2CCN(C(=O)OC(C(F)(F)F)C(F)(F)F)CC2)CC1C(=O)O (centres unmarked) [Example 58, 4-(2-((4-(((1,1,1,3,3,3-hexafluoropropan-2-yl)oxy)carbonyl)piperazin-1-yl)methyl)-5-(trifluoromethyl)phenyl)-1-methylpiperazine-2-carboxylic acid] |  | 0 to 25 | ≥ 75 | ≥ 75 |  |
| O=C(O)C1CCN(c2cc(Cl)c(F)cc2CN2CCN(C(=O)OC(C(F)(F)F)C(F)(F)F)CC2)CC1 [Example 60, 1-(5-chloro-4-fluoro-2-((4-(((1,1,1,3,3,3-hexafluoropropan-2-yl)oxy)carbonyl)piperazin1-yl)methyl)phenyl)piperidine-4-carboxylic acid] |  | ≥ 75 | ≥ 75 | ≥ 75 |  |
| O=C(O)C1CCCCN1c1cc(C(F)(F)F)ccc1CN1CCN(C(=O)OC(C(F)(F)F)C(F)(F)F)CC1 (centres unmarked) [Example 65, 1-(2-((4-(((1,1,1,3,3,3-hexafluoropropan-2-yl)oxy)carbonyl)piperazin-1-yl)methyl)-5-(trifluoromethyl)phenyl)piperidine-2-carboxylic acid] |  | 0 to 25 | ≥ 75 | 50 to 75 |  |
| O=C(O)C1CCN(c2c(CN3CCN(C(=O)OC(C(F)(F)F)C(F)(F)F)CC3)cccc2C(F)(F)F)CC1 [Example 74, 1-(2-((4-(((1,1,1,3,3,3-hexafluoropropan-2-yl)oxy)carbonyl)piperazin-1-yl)methyl)-6-(trifluoromethyl)phenyl)piperidine-4-carboxylic acid] |  | ≥ 75 | ≥ 75 | ≥ 75 |  |
| O=C(O)C1CCN(c2c(Cl)cccc2CN2CCN(C(=O)OC(C(F)(F)F)C(F)(F)F)CC2)CC1 [Example 75, 1-(2-chloro-6-((4-(((1,1,1,3,3,3-hexafluoropropan-2-yl)oxy)carbonyl)piperazin-1-yl)methyl)phenyl)piperidine-4-carboxylic acid] |  | 50 to 75 | ≥ 75 | ≥ 75 |  |
| Cc1cc(N2CCC(C(=O)O)CC2)c(CN2CCN(C(=O)OC(C(F)(F)F)C(F)(F)F)CC2)cc1F [Example 76, 1-(4-fluoro-2-((4-(((1,1,1,3,3,3-hexafluoropropan-2-yl)oxy)carbonyl)piperazin-1-yl)methyl)-5-methylphenyl)piperidine-4-carboxylic acid] | 1 to 10 |  |  |  | ≤ 0.1 |
| O=C(O)C1CCN(c2ccc(CN3CCN(C(=O)OC(C(F)(F)F)C(F)(F)F)CC3)cc2)CC1 [Example 77, 1-(4-((4-(((1,1,1,3,3,3-hexafluoropropan-2-yl)oxy)carbonyl)piperazin-1-yl)methyl)phenyl)piperidine-4-carboxylic acid] |  | ≥ 75 | ≥ 75 |  |  |
| O=C(O)C1CN(c2cc(C(F)(F)F)ccc2CN2CCN(C(=O)OC(C(F)(F)F)C(F)(F)F)CC2)C1 [Example 79, 1-(2-((4-(((1,1,1,3,3,3-hexafluoropropan-2-yl)oxy)carbonyl)piperazin-1-yl)methyl)-5-(trifluoromethyl)phenyl)azetidine-3-carboxylic acid] |  | ≥ 75 | ≥ 75 | ≥ 75 |  |
| C#Cc1ccc(CN2CCN(C(=O)OC(C(F)(F)F)C(F)(F)F)CC2)c(N2CCC(C(=O)O)CC2)c1 [Example 82, 1-(5-ethynyl-2-((4-(((1,1,1,3,3,3-hexafluoropropan-2-yl)oxy)carbonyl)piperazin-1-yl)methyl)phenyl)piperidine-4-carboxylic acid] |  | 50 to 75 | ≥ 75 | ≥ 75 |  |
